Patent EP0196515A1, “Photodynamic inactivation of virus in therapeutic protein compositions” (BAXTER TRAVENOL LABORATORIES, INC., priority 1985, dated 1986)

Key:
Factor VIII = target: T1, Factor VIII (Homo sapiens, UniProt P00451); test: Factor VIII C activity, one-stage activated partial thromboplastin time assay (AHF product after photosensitizer and light)
T1 sequence (P00451 20-1332 limits assumed): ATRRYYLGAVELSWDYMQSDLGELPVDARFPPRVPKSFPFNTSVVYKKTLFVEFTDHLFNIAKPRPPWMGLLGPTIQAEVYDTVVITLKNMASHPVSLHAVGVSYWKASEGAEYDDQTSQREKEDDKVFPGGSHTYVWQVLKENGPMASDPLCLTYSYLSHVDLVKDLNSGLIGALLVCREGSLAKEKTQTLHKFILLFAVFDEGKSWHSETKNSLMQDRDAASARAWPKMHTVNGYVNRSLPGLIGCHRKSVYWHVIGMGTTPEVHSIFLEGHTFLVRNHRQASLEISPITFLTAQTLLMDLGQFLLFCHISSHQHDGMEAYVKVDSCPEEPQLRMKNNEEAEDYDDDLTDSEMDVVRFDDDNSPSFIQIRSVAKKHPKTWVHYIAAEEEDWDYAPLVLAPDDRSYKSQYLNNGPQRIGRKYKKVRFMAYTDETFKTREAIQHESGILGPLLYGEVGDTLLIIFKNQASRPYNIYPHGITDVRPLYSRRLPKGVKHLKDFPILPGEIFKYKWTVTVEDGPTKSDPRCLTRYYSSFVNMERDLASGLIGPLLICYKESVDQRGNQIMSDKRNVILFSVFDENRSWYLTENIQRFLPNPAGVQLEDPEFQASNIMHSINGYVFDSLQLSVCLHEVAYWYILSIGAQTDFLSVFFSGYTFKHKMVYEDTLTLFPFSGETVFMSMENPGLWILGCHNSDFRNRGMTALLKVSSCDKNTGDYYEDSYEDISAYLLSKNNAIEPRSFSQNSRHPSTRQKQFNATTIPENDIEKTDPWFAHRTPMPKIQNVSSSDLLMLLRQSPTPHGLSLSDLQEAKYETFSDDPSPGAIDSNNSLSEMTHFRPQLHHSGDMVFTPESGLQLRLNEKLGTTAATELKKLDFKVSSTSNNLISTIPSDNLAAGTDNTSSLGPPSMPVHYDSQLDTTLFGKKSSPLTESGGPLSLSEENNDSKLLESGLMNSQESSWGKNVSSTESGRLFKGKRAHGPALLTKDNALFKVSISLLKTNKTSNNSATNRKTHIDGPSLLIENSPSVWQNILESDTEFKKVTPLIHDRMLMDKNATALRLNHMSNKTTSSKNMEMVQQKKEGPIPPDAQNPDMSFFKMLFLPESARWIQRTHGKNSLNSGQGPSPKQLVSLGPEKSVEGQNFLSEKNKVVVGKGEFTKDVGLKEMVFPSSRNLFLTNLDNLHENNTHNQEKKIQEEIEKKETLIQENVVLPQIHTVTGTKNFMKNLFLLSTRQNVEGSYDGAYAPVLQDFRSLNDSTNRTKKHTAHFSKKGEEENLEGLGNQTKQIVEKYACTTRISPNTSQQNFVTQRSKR
T1 sequence (P00451 1668-2351 limits assumed): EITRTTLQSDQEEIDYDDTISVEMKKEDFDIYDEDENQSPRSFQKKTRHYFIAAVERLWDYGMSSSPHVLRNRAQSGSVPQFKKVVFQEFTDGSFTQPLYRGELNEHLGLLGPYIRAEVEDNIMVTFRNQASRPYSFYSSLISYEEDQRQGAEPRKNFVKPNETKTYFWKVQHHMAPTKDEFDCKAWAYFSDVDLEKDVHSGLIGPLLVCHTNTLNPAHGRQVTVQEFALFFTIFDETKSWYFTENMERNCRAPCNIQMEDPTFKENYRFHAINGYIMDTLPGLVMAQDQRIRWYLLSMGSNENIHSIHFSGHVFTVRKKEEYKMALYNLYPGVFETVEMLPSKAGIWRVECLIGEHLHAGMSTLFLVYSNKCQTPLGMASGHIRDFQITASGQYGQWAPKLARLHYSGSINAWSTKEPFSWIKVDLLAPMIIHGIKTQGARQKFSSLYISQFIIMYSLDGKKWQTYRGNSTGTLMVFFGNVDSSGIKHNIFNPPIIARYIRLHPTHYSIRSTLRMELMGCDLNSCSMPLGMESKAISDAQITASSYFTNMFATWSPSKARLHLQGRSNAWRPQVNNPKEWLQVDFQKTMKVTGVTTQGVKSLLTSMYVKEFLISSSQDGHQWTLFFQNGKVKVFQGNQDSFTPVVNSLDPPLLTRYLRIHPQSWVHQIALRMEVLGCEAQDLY
From the text: The mixture was then exposed to light of a defined wavelength for a specified period of time.
Several light sources were used. A U.V. light source derived from a high pressure mercury vapor quartz lamp (85 watts) was employed. This source provided a wide band of light in the 390 to 410 nm range. A filter was used to remove the radiation below 350 nm in wave length. Alternatively a super diazo blue fluorescent lamp was used which has a peak emission near the absorption peak of the porphyrins employed.
Factor VIII C and Factor IX activity was determined by the one-stage activated partial thromboplastin time assay using Kaolin as an activator and human Factor VIII or Factor IX deficient plasma as a substrate. […] It involves the addition of the test sample to Factor VIII or Factor IX deficient plasma and measuring the degree of correction of the clotting time. This is then compared to a curve constructed using various dilutions of a lyophilized concentrate (reference) of known potency. […] Both sample and refernce are prediluted in Factor VIII deficient substrate plasma to an approximate activity of 1 U/mL. From the percentage of the reference, the potency can be estimated.

[1] = tested on: Vesicular stomatitis virus; test: microbe, parasite or virus in culture; type: cell-based; settings: read-out: logs of marker virus inactivated
Herpes Simplex virus = test: Photodynamic virus inactivation, plaque assay of virus infectivity; type: cell-based; settings: AHF products; chlorpromazine 1 X 10^-4M; light for less than ten minutes; read-out: logs of marker virus inactivated
Sindbis = test: microbe, parasite or virus in culture; type: cell-based; settings: read-out: logs of marker virus inactivated
[2] = tested on: LAV reverse transcriptase; test: Photodynamic inactivation of LAV seeded into AHF, reverse transcriptase assay; type: biochemical; settings: AHF seeded with LAV, Chlorpromazine 1 X 10^-4M, unfiltered Mercury Arc Lamp
Procedure: The following data supports photodynamic inactivation of LAV using indirect methods. AHF was seeded with LAV virus. In the first set of data, Protoporphyrin was added at a concentration of 5 X 10^-6M. The mixture was exposed to light ffrom a 65 watt Super Diazo Blue lamp at a distance of 10 cm. Albumin was added to the samples after inactivation to inhibit any inactivation from extraneous light. The product was lyophilized and subjected to a reverse transcriptase assay.
In the second set of data, LAV was seeded into an AHF composition. Chlorpromazine (1 X 10^-4M) was added as a photosensitize and the mixture was exposed to unfiltered light from an 85 watt high pressure mercury arc lamp at a distance of 10 cm. The product was lyophilized and analyzed for reverse transcriptase activity. Results are reported in counts per minute.

[3] = Chlorpromazine 1x10^-4M, Mercury Arc Lamp, Sensitizer added-10 min light
[4] = Chlorpromazine 1x10^-5M, Mercury Arc Lamp, Sensitizer added-10 min light
[5] = Chlorpromazine 1x10^-5M, Mercury Arc Lamp, Sensitizer added-20 min light

## CN(C)CCCN1c2ccccc2Sc2ccc(Cl)cc21 [Chlorpromazine, 10-(3-dimethyl-aminopropyl)-2-chlorphenothiazine]
Factor VIII; [3]
  % Change (Ref: Bulk), Percent change in Factor VIII coagulant activity: -29%
  Units/ml: 20.0 Units/ml
Factor VIII; Chlorpromazine 1x10^-4M, Sensitizer added-no light
  Units/ml: 27.3 Units/ml
Factor VIII; [4]
  % Change (Ref: Bulk), Percent change in Factor VIII coagulant activity: -23%
  Units/ml: 24.8 Units/ml
Factor VIII; [5]
  % Change (Ref: Bulk), Percent change in Factor VIII coagulant activity: -43%
  Units/ml: 18.2 Units/ml
Factor VIII; Chlorpromazine 1x10^-5M, Sensitizer added-no light
  Units/ml: 30.1 Units/ml
[1]
  log reduction at 100 µM: > 5
Herpes Simplex virus
  log reduction at 100 µM: > 5
Sindbis
  log reduction at 100 µM: > 5
[2]; exposure 0 minutes
  C.P.M. (reverse transcriptase activity): 36,192 C.P.M.
[2]; exposure 5 minutes
  C.P.M. (reverse transcriptase activity): 27,100 C.P.M.
[2]; exposure 10 minutes
  C.P.M. (reverse transcriptase activity): 6,814 C.P.M.
[2]; exposure 20 minutes
  C.P.M. (reverse transcriptase activity): 4,742 C.P.M.
